# According to US11739098B2 (BRISTOL-MYERS SQUIBB COMPANY, priority 2017, dated 2023):
# What was measured:
# Type in all cases: cell-based
# human TLR7 = target: T1, human TLR7 (Homo sapiens, UniProt Q9NYK1); assay: TLR7 inhibition reporter assay (HEK-Blue cells, SEAP reporter, gardiquimod stimulation); settings: HEK-Blue cells overexpressing human TLR7, SEAP reporter, gardiquimod 7.5 μM
# T1 construct: host or cells: HEK-Blue cells (HEK293-derived reporter line)
# T1 sequence (Q9NYK1 27-1049): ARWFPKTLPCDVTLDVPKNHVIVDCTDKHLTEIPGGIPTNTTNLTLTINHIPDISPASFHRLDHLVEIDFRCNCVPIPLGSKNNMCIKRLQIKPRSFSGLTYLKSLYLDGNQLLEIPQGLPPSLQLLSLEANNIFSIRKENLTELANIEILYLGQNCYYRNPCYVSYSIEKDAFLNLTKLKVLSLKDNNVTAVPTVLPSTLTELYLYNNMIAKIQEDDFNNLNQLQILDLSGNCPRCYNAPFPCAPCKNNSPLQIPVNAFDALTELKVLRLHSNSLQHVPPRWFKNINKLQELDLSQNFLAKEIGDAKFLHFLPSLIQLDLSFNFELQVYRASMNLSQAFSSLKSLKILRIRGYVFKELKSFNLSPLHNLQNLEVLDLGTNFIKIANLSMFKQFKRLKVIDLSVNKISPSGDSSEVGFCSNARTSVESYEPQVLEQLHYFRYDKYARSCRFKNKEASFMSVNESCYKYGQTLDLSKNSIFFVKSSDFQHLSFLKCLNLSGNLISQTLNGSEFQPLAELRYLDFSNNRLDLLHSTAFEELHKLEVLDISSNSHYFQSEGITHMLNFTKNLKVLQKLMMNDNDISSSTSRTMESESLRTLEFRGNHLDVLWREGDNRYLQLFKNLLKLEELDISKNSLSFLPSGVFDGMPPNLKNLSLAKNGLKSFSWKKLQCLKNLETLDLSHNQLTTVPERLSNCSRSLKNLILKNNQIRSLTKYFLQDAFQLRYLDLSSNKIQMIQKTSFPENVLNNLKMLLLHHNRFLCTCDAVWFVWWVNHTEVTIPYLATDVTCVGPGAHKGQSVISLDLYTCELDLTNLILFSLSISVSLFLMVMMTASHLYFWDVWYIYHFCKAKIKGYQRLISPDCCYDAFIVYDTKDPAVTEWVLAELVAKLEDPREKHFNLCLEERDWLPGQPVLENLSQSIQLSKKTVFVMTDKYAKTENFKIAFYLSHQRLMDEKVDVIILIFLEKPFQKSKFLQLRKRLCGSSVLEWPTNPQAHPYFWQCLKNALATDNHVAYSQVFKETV
# Procedure, shortened: (§1)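 Percent inhibition of agonist-induced SEAP secretion in HEK-Blue cells after 22 h at 37 °C. Stimuli: 7.5 μM gardiquimod, 15.9 μM R848, 5 nM ODN2006 for TLR7, TLR8 and TLR9, added after 30 min compound exposure over a 0.05 nM–50 μM range.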
# human TLR8 = target: T2, human TLR8 (Homo sapiens, UniProt Q9NR97); assay: TLR8 inhibition reporter assay (HEK-Blue cells, SEAP reporter, R848 stimulation); settings: HEK-Blue cells overexpressing human TLR8, SEAP reporter, R848 15.9 μM
# T2 construct: host or cells: HEK-Blue cells (HEK293-derived reporter line)
# T2 sequence (Q9NR97 27-1041): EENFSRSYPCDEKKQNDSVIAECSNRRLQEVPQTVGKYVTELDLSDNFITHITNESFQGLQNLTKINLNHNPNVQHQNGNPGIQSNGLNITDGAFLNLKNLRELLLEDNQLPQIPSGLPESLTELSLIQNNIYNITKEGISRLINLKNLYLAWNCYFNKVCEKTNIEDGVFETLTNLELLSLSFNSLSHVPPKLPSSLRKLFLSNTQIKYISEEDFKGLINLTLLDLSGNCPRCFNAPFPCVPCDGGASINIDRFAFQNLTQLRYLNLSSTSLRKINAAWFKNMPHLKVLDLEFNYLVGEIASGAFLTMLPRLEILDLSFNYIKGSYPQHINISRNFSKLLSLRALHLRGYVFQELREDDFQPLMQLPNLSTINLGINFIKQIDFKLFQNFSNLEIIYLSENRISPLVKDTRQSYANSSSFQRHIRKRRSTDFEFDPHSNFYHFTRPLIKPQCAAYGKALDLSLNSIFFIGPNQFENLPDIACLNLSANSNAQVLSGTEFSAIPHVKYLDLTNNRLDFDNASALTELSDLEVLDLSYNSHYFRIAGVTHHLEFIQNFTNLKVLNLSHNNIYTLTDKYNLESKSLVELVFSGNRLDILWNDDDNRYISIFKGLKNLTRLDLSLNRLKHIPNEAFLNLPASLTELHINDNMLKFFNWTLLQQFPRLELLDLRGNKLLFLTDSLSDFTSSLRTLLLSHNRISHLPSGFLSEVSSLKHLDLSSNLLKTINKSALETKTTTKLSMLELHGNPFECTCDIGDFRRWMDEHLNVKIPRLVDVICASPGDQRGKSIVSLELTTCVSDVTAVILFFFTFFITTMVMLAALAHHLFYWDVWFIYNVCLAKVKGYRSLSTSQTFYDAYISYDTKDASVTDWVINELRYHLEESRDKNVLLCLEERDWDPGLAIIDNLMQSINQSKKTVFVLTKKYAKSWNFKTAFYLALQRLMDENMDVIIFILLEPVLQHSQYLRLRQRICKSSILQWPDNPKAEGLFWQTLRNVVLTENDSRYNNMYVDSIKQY
# Procedure, shortened: as §1
# human TLR9 = target: T3, human TLR9 (Homo sapiens, UniProt Q9NR96); assay: TLR9 inhibition reporter assay (HEK-Blue cells, SEAP reporter, ODN2006 stimulation); settings: HEK-Blue cells overexpressing human TLR9, SEAP reporter, ODN2006 5 nM
# T3 construct: host or cells: HEK-Blue cells (HEK293-derived reporter line)
# T3 sequence (Q9NR96 26-1032): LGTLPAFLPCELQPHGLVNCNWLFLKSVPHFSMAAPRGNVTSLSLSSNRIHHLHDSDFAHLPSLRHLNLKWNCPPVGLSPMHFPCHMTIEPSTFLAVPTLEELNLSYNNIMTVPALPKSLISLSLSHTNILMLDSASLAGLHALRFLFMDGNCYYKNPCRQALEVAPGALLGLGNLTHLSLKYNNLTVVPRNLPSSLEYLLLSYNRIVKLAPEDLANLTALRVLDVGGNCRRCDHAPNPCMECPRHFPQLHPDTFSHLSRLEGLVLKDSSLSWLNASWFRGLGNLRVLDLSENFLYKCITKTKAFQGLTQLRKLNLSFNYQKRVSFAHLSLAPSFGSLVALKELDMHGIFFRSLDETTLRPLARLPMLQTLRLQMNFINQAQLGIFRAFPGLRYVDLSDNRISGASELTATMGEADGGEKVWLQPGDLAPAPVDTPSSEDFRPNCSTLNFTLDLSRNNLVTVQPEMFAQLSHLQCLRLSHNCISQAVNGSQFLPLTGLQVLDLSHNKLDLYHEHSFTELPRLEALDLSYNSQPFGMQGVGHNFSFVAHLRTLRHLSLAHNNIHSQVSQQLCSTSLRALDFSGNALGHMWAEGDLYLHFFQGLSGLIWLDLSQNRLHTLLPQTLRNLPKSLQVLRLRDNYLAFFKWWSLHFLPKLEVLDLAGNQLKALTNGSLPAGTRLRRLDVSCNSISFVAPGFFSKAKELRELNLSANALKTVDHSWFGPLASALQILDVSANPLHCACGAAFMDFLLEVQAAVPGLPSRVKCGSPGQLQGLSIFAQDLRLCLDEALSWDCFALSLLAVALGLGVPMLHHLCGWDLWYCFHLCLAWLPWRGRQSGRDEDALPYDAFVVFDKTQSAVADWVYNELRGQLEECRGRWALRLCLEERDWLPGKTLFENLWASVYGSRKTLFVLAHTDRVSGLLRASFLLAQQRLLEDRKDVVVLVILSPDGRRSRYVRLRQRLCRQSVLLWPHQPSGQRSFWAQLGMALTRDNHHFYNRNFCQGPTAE
# Procedure, shortened: as §1
Structure (SMILES),IC50 (human TLR7) [nM],IC50 (human TLR8) [nM],IC50 (human TLR9) [nM]
"Cc1cc2nnnn2cc1-c1[nH]c2ccc(C3CCN(C4COC4)CC3)cc2c1C(C)C [Example 742, 6-(3-isopropyl-5-(1-(oxetan-3-yl)piperidin-4-yl)-1H-indol-2-yl)-7-methyltetrazolo[1,5-a]pyridine]",< 100,100 to 1000,1000 to 50000
"CNC(=O)CN1CCC(c2ccc3[nH]c(-c4ccn5ccnc5c4)c(CC(F)F)c3c2)CC1 [Example 446, 2-(4-(3-(2,2-difluoroethyl)-2-(imidazo[1,2-a]pyridin-7-yl)-1H-indol-5-yl)piperidin-1-yl)-N-methylacetamide]",< 100,100 to 1000,100 to 1000
"Cc1cc(-c2[nH]c3ccc(C4CCN(C(=O)CCN5[C@@H]6CC[C@H]5COC6)CC4)cc3c2C(C)C)cn2nnnc12 [Example 635, 3-((1R,5S)-3-oxa-8-azabicyclo[3.2.1]octan-8-yl)-1-(4-(3-isopropyl-2-(8-methyltetrazolo[1,5-a]pyridin-6-yl)-1H-indol-5-yl)piperidin-1-yl)propan-1-one]",< 100,< 100,1000 to 50000
"CCc1c(-c2ccn3ncnc3c2)[nH]c2ccc(C3CCNCC3)cc12 [Example 198, 7-(3-ethyl-5-(piperidin-4-yl)-1H-indol-2-yl)-[1,2,4]triazolo[1,5-a]pyridine]",< 100,100 to 1000,1000 to 50000
"CCc1c(-c2ccc3ncc(C#N)n3n2)[nH]c2ccc(C3CCNCC3)cc12 [Example 102, 6-(3-ethyl-5-(piperidin-4-yl)-1H-indol-2-yl)imidazo [1,2-b]pyridazine-3-carbonitrile]",1000 to 50000,1000 to 50000,1000 to 50000
"CCc1c(-c2cnc3[nH]ncc3c2)[nH]c2ccc(C3CCN(C4CCN(C(C)C)CC4)CC3)cc12 [Example 819, 5-(3-ethyl-5-(1′-isopropyl-[1,4′-bipiperidin]-4-yl)-1H-indol-2-yl)-1H-pyrazolo[3,4-b]pyridine]",100 to 1000,< 100,100 to 1000
"CNC(=O)CN1CCC(c2ccc3[nH]c(-c4cc(F)c5nccn5c4)c(CC(F)F)c3c2)CC1 [Example 411, 2-(4-(3-(2,2-difluoroethyl)-2-(8-fluoroimidazo[1,2-a]pyridin-6-yl)-1H-indol-5-yl)piperidin-1-yl)-N-methylacetamide]",< 100,100 to 1000,1000 to 50000

# The next lines start with the values.
IC50 (human TLR7) [nM],IC50 (human TLR8) [nM],IC50 (human TLR9) [nM],Structure (SMILES)
< 100,100 to 1000,> 50000,"CC(=O)NCC(=O)N1CCC(c2ccc3[nH]c(-c4ccnc5[nH]ncc45)c(C(C)C)c3c2)CC1 [Example 567, N-(2-(4-(3-isopropyl-2-(1H-pyrazolo[3,4-b]pyridin-4-yl)-1H-indol-5-yl)piperidin-1-yl)-2-oxoethyl)acetamide]"
< 100,< 100,100 to 1000,"CNCCN1CCC(c2ccc3[nH]c(-c4ccc5nccn5c4)c(C(C)C)c3c2)CC1 [Example 680, 2-(4-(2-(imidazo[1,2-a]pyridin-6-yl)-3-isopropyl-1H-indol-5-yl)piperidin-1-yl)-N-methylethan-1-amine]"
100 to 1000,100 to 1000,100 to 1000,"CC(C)c1c(-c2ncnn3cccc23)[nH]c2ccc(C3CCN(CC(=O)N(C)C)CC3)cc12 [Example 424, 2-(4-(3-isopropyl-2-(pyrrolo[2,1-f][1,2,4]triazin-4-yl)-1H-indol-5-yl)piperidin-1-yl)-N,N-dimethylacetamide]"
< 100,< 100,1000 to 50000,"Cc1c(-c2[nH]c3ccc(C4CCN(CC(=O)N(C)C)CC4)cc3c2C(C)C)c2cccnc2n1C [Example 286, 2-(4-(2-(1,2-dimethyl-1H-pyrrolo[2,3-b]pyridin-3-yl)-3-isopropyl-1H-indol-5-yl)piperidin-1-yl)-N,N-dimethylacetamide]"
< 100,< 100,> 50000,"CC(=O)N1CCN(CC(=O)N2CCC(c3ccc4[nH]c(-c5ccnc6[nH]ncc56)c(C(C)C)c4c3)CC2)CC1 [Example 574, 2-(4-acetylpiperazin-1-yl)-1-(4-(3-isopropyl-2-(1H-pyrazolo[3,4-b]pyridin-4-yl)-1H-indol-5-yl)piperidin-1-yl)ethan-1-one]"
< 100,< 100,100 to 1000,"CC(C)c1c(-c2ccnc3[nH]ncc23)[nH]c2ccc(C3CCNCC3)cc12 [Example 230, 4-(3-isopropyl-5-(piperidin-4-yl)-1H-indol-2-yl)-1H-pyrazolo[3,4-b]pyridine]"
< 100,< 100,1000 to 50000,"Cc1cc(-c2[nH]c3ccc(C4CCN(CC(=O)N(C)C)CC4)cc3c2C(C)C)nn2ccnc12 [Example 447, 2-(4-(3-isopropyl-2-(8-methylimidazo[1,2-b]pyridazin-6-yl)-1H-indol-5-yl)piperidin-1-yl)-N,N-dimethylacetamide]"
